Columns and labels:
Phaedon cochleariae = Phaedon cochleariae - spray test (PHAECO); format: in vivo; details: application rate 100 g/ha, Chinese cabbage leaf disks
Procedure: Phaedon cochleariae—Spray Test (PHAECO)
(§1) Solvent: 78.0 parts by weight of acetone • • 1.5 parts by weight of dimethylformamide
(§2) Emulsifier: 0.5 parts by weight of alkylaryl polyglycol ether
(§3) To produce a suitable active compound preparation, 1 part by weight of active compound is mixed with the stated amounts of solvent and emulsifier, and the concentrate is diluted with emulsifier-containing water to the desired concentration.
After the desired period of time, the efficacy in % is determined. 100% means that all the beetle larvae have been killed; 0% means that no beetle larvae have been killed.

Myzus persicae = Myzus persicae - spray test (MYZUPE); format: in vivo; details: application rate 100 g/ha, Chinese cabbage leaf disks
Procedure: Myzus persicae—Spray Test (MYZUPE)
Solvent: 78 parts by weight of acetone • • 1.5 parts by weight of dimethylformamide
as §2, §3
Disks of Chinese cabbage leaves (Brassica pekinensis) infested by all stages of the green peach aphid (Myzus persicae) are sprayed with an active compound preparation of the desired concentration.
After the desired period of time, the efficacy in % is determined. 100% means that all the aphids have been killed; 0% means that none of the aphids have been killed.

Spodoptera frugiperda = Spodoptera frugiperda - spray test (SPODFR); format: in vivo; details: application rate 100 g/ha, maize leaf disks
Procedure: Spodoptera frugiperda—Spray Test (SPODFR)
as §1, §2, §3
Leaf disks of maize (Zea mays) are sprayed with an active compound preparation of the desired concentration and, after drying, populated with caterpillars of the armyworm (Spodoptera frugiperda).
After the desired period of time, the efficacy in % is determined. 100% means that all the caterpillars have been killed; 0% means that no caterpillars have been killed.

[1] = log P by HPLC on reversed-phase column (C18), EEC directive 79/831 Annex V.A8; format: physicochemical; details: HPLC reversed-phase C18, 43° C., data refer to the E isomer
Procedure: The log P values reported in the tables and Preparation Examples above were determined in accordance with EEC directive 79/831 Annex V.A8 by HPLC (High Performance Liquid Chromatography) using a reversed-phase column (C18). Temperature 43° C. The calibration is effected with unbranched alkan-2-ones (having 3 to 16 carbon atoms), for which the log P values are known.

Structure (SMILES)	efficacy (beetle larvae killed) (Phaedon cochleariae) [%]	efficacy (aphids killed) (Myzus persicae) [%]	efficacy (caterpillars killed) (Spodoptera frugiperda) [%]	log p ([1]; Table C)	log p ([1]; Table A)	log p ([1]; Table B)
CON=Cc1cc(C)c(NC(=O)c2cc(OC(C)C)nn2-c2ncccc2Cl)c(C(=O)NC(C)C2CC2)c1 (centres unmarked) [C-08]	100	90	100	3.65	–	–
CCOc1cc(C(=O)Nc2c(C)cc(C=NOC)cc2C(=O)NC(C)C2CC2)n(-c2ncccc2Cl)n1 (centres unmarked) [C-27]	100	90	100	3.38	–	–
CON=Cc1cc(C)c(NC(=O)c2cc(OCC(F)F)nn2-c2ncccc2Cl)c(C(=O)NC(C)(C)C)c1 [C-21]	83	100	100	3.43	–	–
CON=Cc1cc(C)c(NC(=O)c2cc(C(F)(F)F)nn2-c2ncccc2Cl)c(C(=O)N(C)NC(=O)OC)c1 (mixture of isomers) [A-48]	100	100	100	–	3.00	–
CON=Cc1cc(C)c(NC(=O)c2cc(OC)nn2-c2ncccc2Cl)c(C(=O)NC(C)C)c1 (mixture of isomers) [C-32]	100	90	100	3.22	–	–
CON=Cc1cc(C)c(NC(=O)c2cc(Br)nn2-c2ncccc2Cl)c(C(=O)NN(C)C(=O)OC)c1 (mixture of isomers) [A-45]	100	100	100	–	2.50	–
C#CCOC(=O)NNC(=O)c1cc(C=NOC)cc(C)c1NC(=O)c1cc(Br)nn1-c1ncccc1Cl [A-08]	100	100	100	–	2.58	–
COCCNC(=O)c1cc(C=NOC)cc(C)c1NC(=O)c1cc(C(F)F)nn1-c1ncccc1Cl [C-59]	100	90	100	2.53	–	–
CON=Cc1cc(C)c(NC(=O)c2cc(OC)nn2-c2ncccc2Cl)c(C(=O)NNC(=O)OC)c1 (mixture of isomers) [A-38]	100	–	100	–	2.00	–
CCNC(=O)c1cc(C=NOC)cc(C)c1NC(=O)c1cc(OC)nn1-c1ncccc1Cl [C-47]	100	100	100	2.41	–	–
CCOc1cc(C(=O)Nc2c(C)cc(C=NOC)cc2C(=O)NC(C)(C)C)n(-c2ncccc2Cl)n1 [C-11]	100	100	100	3.42	–	–
CNC(=O)c1cc(C=NOC)cc(C)c1NC(=O)c1cc(OC)nn1-c1ncccc1Cl [C-22]	100	100	100	2.15	–	–
CON=Cc1cc(C)c(NC(=O)c2cc(OC(C)C)nn2-c2ncccc2Cl)c(C(=O)NC2CC2)c1 [C-06]	100	–	100	2.98	–	–
CNC(=O)c1cc(C=NOC)cc(C)c1NC(=O)c1cc(OC)nn1-c1ncccc1Cl (mixture of isomers) [C-33]	100	90	100	2.70	–	–
CON=Cc1cc(C)c(NC(=O)c2cc(Br)nn2-c2ncccc2Cl)c(C(=O)NC2COC2)c1 (mixture of isomers) [B-03]	100	100	100	–	–	2.44
CON=Cc1cc(C)c(NC(=O)c2cc(OC(C)C)nn2-c2ncccc2Cl)c(C(=O)NNC(=O)OC)c1 (mixture of isomers) [A-35]	100	90	100	–	2.54	–
CON=Cc1cc(C)c(NC(=O)c2cc(C(F)(F)F)nn2-c2ncccc2Cl)c(C(=O)NNC(C)=O)c1 (mixture of isomers) [A-32]	100	90	100	–	2.38	–
COCC(C)NC(=O)c1cc(C=NOC)cc(C)c1NC(=O)c1cc(C(F)F)nn1-c1ncccc1Cl (centres unmarked) [C-60]	100	100	100	2.84	–	–

Structure (SMILES)	efficacy (beetle larvae killed) (Phaedon cochleariae) [%]	efficacy (aphids killed) (Myzus persicae) [%]	efficacy (caterpillars killed) (Spodoptera frugiperda) [%]	log p ([1]; Table C)	log p ([1]; Table A)	log p ([1]; Table B)
CON=Cc1cc(C)c(NC(=O)c2cc(Br)nn2-c2ncccc2Cl)c(C(=O)NNC(=O)OC(C)C)c1 [A-06]	100	–	100	–	2.88	–
CON=Cc1cc(C)c(NC(=O)c2cc(C(F)(F)F)nn2-c2ncccc2Cl)c(C(=O)NNS(C)(=O)=O)c1 [A-23]	100	100	100	–	2.63	–
COCCOC(=O)NNC(=O)c1cc(C=NOC)cc(C)c1NC(=O)c1cc(C(F)(F)F)nn1-c1ncccc1Cl [A-20]	100	90	100	–	2.74	–
CON=Cc1cc(C)c(NC(=O)c2cc(OC)nn2-c2ncccc2Cl)c(C(=O)NC(C)(C)C)c1 (mixture of isomers) [C-37]	100	90	100	3.71	–	–
CON=Cc1cc(C)c(NC(=O)c2cc(OC(C)C)nn2-c2ncccc2Cl)c(C(=O)NC(C)(C)C)c1 [C-09]	100	100	100	3.74	–	–
CON=Cc1cc(C)c(NC(=O)c2cc(OC)nn2-c2ncccc2Cl)c(C(=O)NC2CC2)c1 (mixture of isomers) [C-30]	100	–	100	2.97	–	–
CON=Cc1cc(C)c(NC(=O)c2cc(OC(F)F)nn2-c2ncccc2Cl)c(C(=O)NN(C)C(=O)OC)c1 (mixture of isomers) [A-49]	100	90	100	–	2.60	–
CON=Cc1cc(C)c(NC(=O)c2cc(C(F)F)nn2-c2ncccc2Cl)c(C(=O)NC(C)C2CC2)c1 (centres unmarked) [C-36]	100	90	100	3.29	–	–
CON=Cc1cc(C)c(NC(=O)c2cc(OC)nn2-c2ncccc2Cl)c(C(=O)NC2CC2)c1 [C-23]	100	100	100	2.40	–	–
CON=Cc1cc(C)c(NC(=O)c2cc(OC(C)C)nn2-c2ncccc2Cl)c(C(=O)NC(C)C)c1 [C-07]	100	90	100	3.29	–	–
CON=Cc1cc(C)c(NC(=O)c2cc(C(F)(F)F)nn2-c2ncccc2Cl)c(C(=O)N(C)NC(=O)OC(C)C)c1 [A-25]	100	–	100	–	3.57	–
CON=Cc1cc(C)c(NC(=O)c2cc(OCC(F)(F)F)nn2-c2ncccc2Cl)c(C(=O)NNC(=O)OC)c1 (mixture of isomers) [A-33]	100	100	100	–	2.70	–
CCNC(=O)c1cc(C=NOC)cc(C)c1NC(=O)c1cc(C(F)F)nn1-c1ncccc1Cl [C-63]	100	100	100	2.71	–	–
CNC(=O)c1cc(C=NOC)cc(C)c1NC(=O)c1cc(OC(C)C)nn1-c1ncccc1Cl [C-65]	100	–	100	2.75	–	–
CON=Cc1cc(C)c(NC(=O)c2cc(Br)nn2-c2ncccc2Cl)c(C(=O)N(C)NC(=O)OC)c1 [A-03]	100	–	100	–	2.74	–
CON=Cc1cc(C)c(NC(=O)c2cc(OC)nn2-c2ncccc2Cl)c(C(=O)NC(C)C2CC2)c1 (mixture of isomers) [C-31]	100	–	100	3.66	–	–
CON=Cc1cc(C)c(NC(=O)c2cc(C(F)(F)F)nn2-c2ncccc2Cl)c(C(=O)N(C)NS(C)(=O)=O)c1 [A-31]	100	–	100	–	2.88	–

Source: patent US9609868B2, “Alkoximino-substituted anthranilic acid diamides as pesticides” (BAYER CROPSCIENCE AKTIENGESELLSCHAFT, priority 2013, dated 2017)
